From ChEMBL document CHEMBL2074308, “5'-Amino acid esters of antiviral nucleosides, acyclovir, and AZT are absorbed by the intestinal PEPT1 peptide transporter” (Pharm Res, 1998) come the findings set out here.

In data set [1] the target is T1, Solute carrier family 15 member 1 (Homo sapiens, UniProt P46059).
T1 sequence (P46059 whole entry): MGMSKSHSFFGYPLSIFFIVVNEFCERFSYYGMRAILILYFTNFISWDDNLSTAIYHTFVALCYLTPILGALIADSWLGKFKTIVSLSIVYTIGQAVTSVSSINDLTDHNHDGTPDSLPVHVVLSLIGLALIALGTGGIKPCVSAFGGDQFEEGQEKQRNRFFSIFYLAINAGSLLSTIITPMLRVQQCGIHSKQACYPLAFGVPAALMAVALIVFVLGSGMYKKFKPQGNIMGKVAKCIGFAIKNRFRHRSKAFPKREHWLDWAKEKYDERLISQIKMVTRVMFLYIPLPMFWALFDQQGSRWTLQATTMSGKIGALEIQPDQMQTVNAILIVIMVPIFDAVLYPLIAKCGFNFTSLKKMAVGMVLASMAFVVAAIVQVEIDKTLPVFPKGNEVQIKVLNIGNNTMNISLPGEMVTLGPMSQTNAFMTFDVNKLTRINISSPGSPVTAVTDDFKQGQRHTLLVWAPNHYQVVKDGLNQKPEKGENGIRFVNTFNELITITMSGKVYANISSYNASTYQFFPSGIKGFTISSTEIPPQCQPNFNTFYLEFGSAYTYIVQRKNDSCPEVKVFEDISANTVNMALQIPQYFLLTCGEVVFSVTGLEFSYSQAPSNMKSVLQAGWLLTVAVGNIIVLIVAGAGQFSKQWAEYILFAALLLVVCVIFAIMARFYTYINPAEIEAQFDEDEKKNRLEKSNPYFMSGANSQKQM
The data set is described as follows: TP_TRANSPORTER: inhibition of Gly-Sar uptake (Gly-Sar: 20 uM) in PEPT1-expressing CHO cells. The class given is functional, cell-based.

In data set [2] the target is T1, Solute carrier family 15 member 1. The data set can be described thus: TP_TRANSPORTER: inhibition of Gly-Sar uptake, D-form (Gly-Sar: 20 uM) in PEPT1-expressing CHO cells. The class given is functional, cell-based.
Data set [3] has the same target. The data set is described as follows: TP_TRANSPORTER: inhibition of Gly-Sar uptake, L-form (Gly-Sar: 20 uM) in PEPT1-expressing CHO cells. The class given is functional, cell-based.
Substrate in data set [4]: CC(C)[C@H](N)C(=O)OCCOCn1cnc2c(=O)nc(N)[nH]c21
Conditions: Caco-2.
Description: TP_TRANSPORTER: transepithelial transport (apical to basal), L-form in Caco-2 cells

The term IC50 denotes the concentration at which inhibition is half-maximal. The low end stands for greater potency, the high end for weaker potency. Consider `CC(C)[C@H](N)C(=O)OCCOCn1cnc2c(=O)[nH]c(N)nc21` [VALACYCLOVIR], for which the IC50 amounted to 400 µM in data set [1], 3400 µM in data set [2] and 1100 µM in data set [3].

Molecule `CCOC(=O)[C@H](CCc1ccccc1)N[C@@H](C)C(=O)N1CCC[C@H]1C(=O)O` [ENALAPRIL] gave an IC50 in data set [1] of 15000 µM.

Consider `NCC(=O)OCCOCn1cnc2c(=O)[nH]c(N)nc21` [GLYCYL ESTER OF ACYCLOVIR], for which the IC50 in data set [1] worked out at 1400 µM. `CC1=C(C(=O)O)N2C(=O)[C@@H](NC(=O)[C@H](N)C3=CCC=CC3)[C@H]2SC1` [CEPHRADINE]: in data set [1], half-maximal inhibition (IC50) required 15000 µM.

B1: Solute carrier family 15 member 1 (Homo sapiens), P46059 (protein)
chain: T1 sequence (P46059 whole entry)
One may read the Km as the substrate concentration at which the rate is half of its maximum. Consider B1, for which the Km in data set [4] turned out to be 292 µM.
